Results on one compound are retold here after patent publication US8906946B2, “TRPM8 receptor antagonists” (Dompe' S.p.A., priority 2011, dated 2014).

One series addresses T1, hTRPV4 channels (Homo sapiens, UniProt Q9HBA0).
T1 construct: expressed in transfected cells; host or cells: CHO
Put plainly: Selectivity analysis, calcium influx assay, hTRPV4 in CHO cells. The class given is cell-based. Here is the method:
The objective of this study was to evaluate the effects in vitro of compound 1 on 3 cloned human channels expressed in HEK293 or CHO cells using the Fluo-8 calcium kit (AAT Bioquest, Inc.), and a Fluorescence Imaging Plate Reader (FLIPR^TETRA™) instrument. The following 3 cloned human channels were evaluated in this study. • 1. Cloned hTRPM8 channels (encoded by the human TRPM8 gene, stably expressed in CHO cells), • 2. Cloned hTRPV1 channels (encoded by the human TRPV1 gene, stably expressed in HEK293 cells), • 3. Cloned hTRPV4 channels (encoded by the human TRPV4 gene, stably expressed in CHO cells).
The effects of […] (0.001, 0.01, 1, and 10 μM) of compound (1) were evaluated on these three TRP channels (n>3) using the following experimental procedure for each channel tested:
The ability of compound (1) to act as an antagonist of TRPV4 was evaluated with a calcium influx assay. The signal elicited in the presence of the positive control agonist (10 μM GSK1016790A) was set to 100% and the signal in the presence of the antagonist (5 μM ruthenium red) was set to 0. Values were considered significant if the test article mean was three or more standard deviations away from the positive control agonist mean.

Series [1] in a line: Plasma Protein Binding, human. The class given is in vitro ADME.
The next series addresses CYP3A4 (Homo sapiens, UniProt P08684). Nature of the series: CYP inhibition 3A4. The class given is in vitro ADME. The note with it: 3A4, 10 μM.
The test system of series [2] is hepatocytes. Nature of the series: Metabolic stability hepatocytes, human. The class given is in vitro ADME.
A further series has as its target CYP2C19 (Homo sapiens, UniProt P33261). Nature of the series: CYP inhibition 2C19. The class given is in vitro ADME. The note with it: 2C19, 10 μM.
A further series deals with human TRPM8 (Homo sapiens, UniProt Q7Z2W7). Put plainly: High-throughput FLIPR TETRA calcium fluorescence assay for TRPM8 antagonists in HEK293/hTRPM8 cells. The class given is cell-based. On the set-up: expressed in transfected cells. The following applies: agonist Cooling Agent 10 at EC80, Ca2+ fluorescence. The source says: A functional cell-based assay for the identification of TRPM8 receptor antagonists, optimised to allow high throughput screening at FLIPR^TETRA, was developed in HEK293 cells by stable pure clone selection and functional characterization with a fluorescent calcium sensitive dye.
Sequence of human TRPM8 (Q7Z2W7 whole entry): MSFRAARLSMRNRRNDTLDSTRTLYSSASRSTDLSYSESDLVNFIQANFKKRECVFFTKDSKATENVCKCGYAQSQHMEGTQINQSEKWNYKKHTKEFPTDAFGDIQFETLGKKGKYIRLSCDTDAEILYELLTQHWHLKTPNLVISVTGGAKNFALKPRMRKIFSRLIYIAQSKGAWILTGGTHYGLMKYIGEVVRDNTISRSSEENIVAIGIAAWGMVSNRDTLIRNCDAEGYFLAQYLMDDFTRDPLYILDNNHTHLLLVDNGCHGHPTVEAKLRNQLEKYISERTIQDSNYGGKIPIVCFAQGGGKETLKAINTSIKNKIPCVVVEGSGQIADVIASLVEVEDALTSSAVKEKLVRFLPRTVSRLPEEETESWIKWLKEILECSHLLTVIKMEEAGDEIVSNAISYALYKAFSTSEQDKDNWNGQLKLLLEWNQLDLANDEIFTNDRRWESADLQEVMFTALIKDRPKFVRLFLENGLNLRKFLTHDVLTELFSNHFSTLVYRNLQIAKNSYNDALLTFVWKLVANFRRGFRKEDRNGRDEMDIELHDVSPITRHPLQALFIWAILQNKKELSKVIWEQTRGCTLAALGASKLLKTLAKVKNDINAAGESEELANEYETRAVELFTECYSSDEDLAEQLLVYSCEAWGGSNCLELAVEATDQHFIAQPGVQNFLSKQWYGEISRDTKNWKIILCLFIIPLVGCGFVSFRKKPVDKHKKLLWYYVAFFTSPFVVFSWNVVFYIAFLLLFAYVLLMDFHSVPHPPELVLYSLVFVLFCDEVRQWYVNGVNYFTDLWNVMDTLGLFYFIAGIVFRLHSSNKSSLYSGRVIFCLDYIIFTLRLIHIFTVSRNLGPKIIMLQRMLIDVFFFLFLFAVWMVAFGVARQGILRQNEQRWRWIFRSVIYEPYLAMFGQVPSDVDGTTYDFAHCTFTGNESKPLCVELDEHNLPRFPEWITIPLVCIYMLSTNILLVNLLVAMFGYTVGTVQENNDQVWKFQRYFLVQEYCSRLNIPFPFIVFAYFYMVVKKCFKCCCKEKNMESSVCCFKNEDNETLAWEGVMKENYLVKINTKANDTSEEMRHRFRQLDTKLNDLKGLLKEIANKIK
TRPM8 was cloned into the multiple clonig site of pcDNA3 mammalian expression vector; the obtained construct pcDNA3/hTRPM8 was fully sequence verified and used for the transfection of HEK293 cell line. HEK293 cells stably transfected with TRPM8 gene were maintained in Minimum essential medium. The cells were transfected with the pcDNA3/hTRPM8 vector by electroporation and then selected with medium containing 0.8 mg/ml G418 for 10-15 days.
The following commercial compounds were used as ligands: • Activator: Cooling Agent 10 (Takasago CAS N. 87061-04-9) • Blocker: Capsazepine (SIGMA cat #D—5879)
The experimental activities were performed using FLIPR^TETRA instruments.
HEK293 cells stably transfected with TRPM8 gene were maintained in Minimum essential medium.
The TRPM8 cell line was analysed for the response to a library of compounds using a Ca^2+ mobilization-dependent fluorescence signal in 384 wells microtiter plate format. The analysis was performed using the FLIPR^TETRA (MDC) with the ICCD Camera.
The execution of the assay involved the use of three microtiter plates:
1. Assay plate, containing cells loaded with dye and prepared as follows:
Cells were seeded at 15000 c/well in Poly-D-Lysine coated 384 wells Microtiter Plates in complete medium (25 μl/well).
24 h after seeding, the cell plates were washed with Tyrode assay buffer by the Microplate Washer and 10 μL of Tyrode assay buffer was left in each well.
Cells were then loaded with 10 μL/well of the Fluo-4 NW dye solution by CyBi®-Well pipettor. Each bottle of Fluo4-NW dye (Molecular Probes cat. #F36206, component A) was re-suspended in 8 mL of Tyrode assay buffer and supplemented with 100 μL of water-soluble probenecid (MolecularProbes cat.#F36206, component B).
Dye loaded cell plates were incubated for 1 h at room temperature.
2. Compound Dilution Plate (FIG. 1), containing diluted test compounds, formulated as follows: • Column 1: wells containing Assay Buffer plus DMSO 0.5% final • Column 2: wells alternating Max Signal Control in first injection (Maximum Response: Cooling Agent 10 at EC100, 100 μM) and Min Signal Control in first injection (Assay buffer plus 0.5% DMSO final); • Columns 3-22: wells containing Assay Buffer plus 0.5% DMSO final. To these wells the compounds to be tested were added at 3× concentration. • Column 23: alternating wells of Max Signal Control in second injection (Assay buffer) and Min Signal Control in second injection (Antagonist Capsazepine IC100, 50 μM) in Assay buffer plus 0.5% DMSO final; • Column 24: wells containing Capsazepine (Antagonist) at 8 concentrations in duplicate at final concentrations of […] in Assay buffer plus 0.5% DMSO final.
3. Activator Plate (FIG. 2), containing agonist Cooling Agent 10 at EC80, formulated as follows: • Column 1: Cooling Agent 10 (Agonist) at 8 concentrations dose response in duplicate at final concentrations of […] in Assay buffer; • Columns 2-24: Cooling Agent 10 (Agonist) at EC80 (3 fold concentrated, 20 μM final) in Assay buffer.
The test was carried out according to a procedure comprising the following steps: • 1. The samples contained in the wells of the Compound Plate were added to the corresponding wells of the Assay Plate by the FLIPR^TETRA, thus resulting in the addition in Columns 3-22 of the test compounds at 3× concentration to the cells of the assay plates. No mixing was performed in the assay wells and the signal of the emitted fluorescence was recorded for 300 seconds. • 2.

A further series in a line: Plasma stability, rat. The class given is in vitro ADME.
Series [3] concerns hepatocytes. Nature of the series: Metabolic stability hepatocytes, rat. It is filed as in vitro ADME.
Series [4] can be described thus: Plasma Protein Binding, rat. The class given is in vitro ADME.
Another series concerns the target CYP2C9 (Homo sapiens, UniProt P11712). Put plainly: CYP inhibition 2C9. The class given is in vitro ADME. The following applies: 2C9, 10 μM.
The next series deals with hERG (Homo sapiens, UniProt Q12809). Put plainly: hERG binding. (Block of hERG is tested as a sign of cardiac risk.)
Sequence of hERG (Q12809 whole entry): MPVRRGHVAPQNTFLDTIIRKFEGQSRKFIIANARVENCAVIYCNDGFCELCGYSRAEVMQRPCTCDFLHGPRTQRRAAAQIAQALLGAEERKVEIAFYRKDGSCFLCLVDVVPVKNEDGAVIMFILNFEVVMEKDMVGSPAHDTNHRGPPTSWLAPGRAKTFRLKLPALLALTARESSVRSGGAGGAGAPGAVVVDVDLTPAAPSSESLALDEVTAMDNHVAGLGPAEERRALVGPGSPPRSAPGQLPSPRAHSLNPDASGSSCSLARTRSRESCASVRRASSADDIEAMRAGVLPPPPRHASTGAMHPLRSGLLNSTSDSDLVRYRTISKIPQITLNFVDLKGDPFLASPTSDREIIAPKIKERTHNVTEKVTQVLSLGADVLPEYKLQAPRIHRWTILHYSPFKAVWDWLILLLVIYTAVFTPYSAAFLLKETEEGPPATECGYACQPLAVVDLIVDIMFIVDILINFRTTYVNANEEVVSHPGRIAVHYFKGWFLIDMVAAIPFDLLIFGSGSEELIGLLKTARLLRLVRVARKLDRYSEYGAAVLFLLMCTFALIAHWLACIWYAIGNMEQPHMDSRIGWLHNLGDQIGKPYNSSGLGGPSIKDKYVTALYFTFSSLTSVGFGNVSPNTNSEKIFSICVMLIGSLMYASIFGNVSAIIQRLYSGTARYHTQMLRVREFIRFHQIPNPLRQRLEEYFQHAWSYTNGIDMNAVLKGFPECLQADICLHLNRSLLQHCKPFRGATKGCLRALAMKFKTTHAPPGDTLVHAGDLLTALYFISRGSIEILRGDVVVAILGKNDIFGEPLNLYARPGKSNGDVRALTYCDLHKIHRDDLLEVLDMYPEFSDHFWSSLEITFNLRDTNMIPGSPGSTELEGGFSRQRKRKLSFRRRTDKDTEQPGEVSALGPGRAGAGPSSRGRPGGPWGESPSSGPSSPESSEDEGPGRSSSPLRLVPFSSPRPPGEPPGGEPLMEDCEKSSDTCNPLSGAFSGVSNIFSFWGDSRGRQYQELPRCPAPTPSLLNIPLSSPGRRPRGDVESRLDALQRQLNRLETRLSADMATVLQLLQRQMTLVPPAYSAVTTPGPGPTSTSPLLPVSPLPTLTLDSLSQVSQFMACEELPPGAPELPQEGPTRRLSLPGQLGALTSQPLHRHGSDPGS

SMILES strings stand for the structures. Values joined by “and” are separate entries in the source; they are usually repeats but may differ in a detail not shown here. Identical values can stand only once.

T1 sequence (Q9HBA0 whole entry): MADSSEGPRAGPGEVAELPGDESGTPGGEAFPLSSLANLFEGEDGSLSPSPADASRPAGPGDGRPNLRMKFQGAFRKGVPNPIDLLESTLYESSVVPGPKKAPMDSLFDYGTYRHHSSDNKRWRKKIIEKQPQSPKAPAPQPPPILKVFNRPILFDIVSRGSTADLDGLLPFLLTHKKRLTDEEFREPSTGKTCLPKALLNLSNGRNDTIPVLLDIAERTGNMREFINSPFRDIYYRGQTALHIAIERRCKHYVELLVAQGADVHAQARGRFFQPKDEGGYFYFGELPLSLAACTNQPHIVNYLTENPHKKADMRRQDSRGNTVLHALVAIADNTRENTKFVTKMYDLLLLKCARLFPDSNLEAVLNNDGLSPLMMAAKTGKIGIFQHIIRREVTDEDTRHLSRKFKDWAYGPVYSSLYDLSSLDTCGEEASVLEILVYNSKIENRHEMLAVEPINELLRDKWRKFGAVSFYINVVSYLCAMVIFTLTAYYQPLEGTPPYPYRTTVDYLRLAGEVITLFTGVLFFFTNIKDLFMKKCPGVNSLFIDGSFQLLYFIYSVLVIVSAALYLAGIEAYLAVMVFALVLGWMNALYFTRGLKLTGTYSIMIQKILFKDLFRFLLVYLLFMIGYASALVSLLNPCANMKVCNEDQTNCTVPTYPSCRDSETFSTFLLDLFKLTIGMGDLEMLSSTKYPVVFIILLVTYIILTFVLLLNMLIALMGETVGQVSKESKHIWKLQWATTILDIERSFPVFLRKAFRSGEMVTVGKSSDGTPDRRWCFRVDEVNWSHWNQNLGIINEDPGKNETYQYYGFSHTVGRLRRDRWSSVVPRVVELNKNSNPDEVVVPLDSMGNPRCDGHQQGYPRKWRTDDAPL
Sequence of CYP3A4 (P08684 whole entry): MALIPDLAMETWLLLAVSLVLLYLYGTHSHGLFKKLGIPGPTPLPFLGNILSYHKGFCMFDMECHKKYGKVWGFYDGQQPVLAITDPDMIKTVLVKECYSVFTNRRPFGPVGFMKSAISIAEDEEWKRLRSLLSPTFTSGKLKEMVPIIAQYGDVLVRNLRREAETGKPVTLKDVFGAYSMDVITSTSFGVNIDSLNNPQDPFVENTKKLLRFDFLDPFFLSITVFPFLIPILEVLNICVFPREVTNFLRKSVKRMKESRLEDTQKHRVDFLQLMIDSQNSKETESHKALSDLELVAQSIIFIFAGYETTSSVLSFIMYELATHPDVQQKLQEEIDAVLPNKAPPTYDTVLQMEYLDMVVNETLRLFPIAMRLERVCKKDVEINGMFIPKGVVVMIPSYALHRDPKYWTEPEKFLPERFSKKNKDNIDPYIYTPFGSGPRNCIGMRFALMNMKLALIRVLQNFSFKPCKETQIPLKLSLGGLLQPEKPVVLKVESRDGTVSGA
Sequence of CYP2C19 (P33261 whole entry): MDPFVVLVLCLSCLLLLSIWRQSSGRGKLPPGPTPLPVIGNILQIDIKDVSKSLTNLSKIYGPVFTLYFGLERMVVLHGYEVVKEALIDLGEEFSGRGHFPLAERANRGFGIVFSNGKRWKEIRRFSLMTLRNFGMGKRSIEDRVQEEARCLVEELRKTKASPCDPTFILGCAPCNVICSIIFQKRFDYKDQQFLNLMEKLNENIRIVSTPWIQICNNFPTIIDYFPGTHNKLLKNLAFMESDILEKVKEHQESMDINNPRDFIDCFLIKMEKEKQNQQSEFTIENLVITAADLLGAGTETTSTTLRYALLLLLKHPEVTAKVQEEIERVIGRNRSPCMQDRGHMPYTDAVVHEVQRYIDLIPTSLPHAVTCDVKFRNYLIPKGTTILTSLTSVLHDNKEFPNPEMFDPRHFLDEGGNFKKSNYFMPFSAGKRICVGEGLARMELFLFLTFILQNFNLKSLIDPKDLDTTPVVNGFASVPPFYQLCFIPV
Sequence of CYP2C9 (P11712 whole entry): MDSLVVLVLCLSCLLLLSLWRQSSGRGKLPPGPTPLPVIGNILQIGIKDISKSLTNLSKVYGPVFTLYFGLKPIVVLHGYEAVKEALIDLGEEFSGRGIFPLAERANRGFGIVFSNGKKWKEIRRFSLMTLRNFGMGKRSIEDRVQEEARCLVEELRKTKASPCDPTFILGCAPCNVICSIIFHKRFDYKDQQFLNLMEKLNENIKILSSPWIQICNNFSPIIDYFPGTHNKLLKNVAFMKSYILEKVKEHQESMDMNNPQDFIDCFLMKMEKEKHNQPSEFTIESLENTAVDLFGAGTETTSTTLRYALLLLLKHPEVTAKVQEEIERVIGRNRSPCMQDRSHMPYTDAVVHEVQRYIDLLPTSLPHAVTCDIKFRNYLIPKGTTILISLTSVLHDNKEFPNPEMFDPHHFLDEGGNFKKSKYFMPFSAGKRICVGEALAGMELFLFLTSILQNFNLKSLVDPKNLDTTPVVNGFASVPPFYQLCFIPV

What is called inhibition is the change of the read-out against control, counted positive when it falls. As usually defined, the fraction unbound is free concentration divided by total concentration. Read a low fraction unbound as extensive binding. A word on the IC50: it is the concentration that inhibits the measured activity by half. For the compound `Cl.Clc1c(OCCNCc2ccco2)ccc2ccccc12` [Compound 1, 2-[(1-chloronaphthalen-2-yl)oxy]-N-(furan-2-ylmethyl)ethanaminium chloride], the inhibition at 0.001 µM on hTRPV4 channels (0.001 μM, 10 μM GSK1016790A = 100%, 5 μM ruthenium red = 0, read-out: normalized % inhibition TRPV4) turned out to be 13.3%. On hTRPV4 channels (0.01 μM, 10 μM GSK1016790A, read-out: normalized % inhibition TRPV4), the inhibition at 0.01 µM turned out to be 9.03%. Moreover, on hTRPV4 channels (0.1 μM, 10 μM GSK1016790A, read-out: normalized % inhibition TRPV4), the inhibition at 0.1 µM stood at 12.2%. Also, at hTRPV4 channels (1 μM, 10 μM GSK1016790A, read-out: normalized % inhibition TRPV4), the inhibition at 1 µM came to 1.97%. Also, the inhibition at 10 µM was 85.7% at hTRPV4 channels (10 μM, 10 μM GSK1016790A, read-out: normalized % inhibition TRPV4); 33.3% on CYP3A4; 55.3% against CYP2C19; 63.1% against CYP2C9. For the same compound, the results for the fraction unbound at 10 μM in [1] and in series [4] were 0.02 and 0.03, respectively. In addition, the “Metabolic stability hepatocytes (% remaining at 120 min @1 μM)” value in the series with hepatocytes [2] turned out to be 2.6%; in the series on hepatocytes [3], 5.0%. Further, the half-inhibitory concentration (IC50) at human TRPM8 was < 10000 nM and 70 nM. Besides, the “Plasma stability (% remaining) @10 μM” value in the series “Plasma stability, rat” was 87%. Further, at hERG, the “hERG binding @10 μM” value was “No effect”.
